The target in assay [1] is T1, immobilized isoD7-Aβ42 (Homo sapiens, UniProt P05067).
T1 construct: isoD7-Aβ42 (DAEFRH[isoD][…]); purchased Biopeptide Co., LLC (San Diego, CA, USA); host or cells: chemical synthesis
The assay can be described thus: SPR analysis of HAEE binding to immobilized isoD7-Aβ42. As to the method: All SPR measurements were carried out at 25°C using an optical biosensor Biacore 8K (GE Healthcare, USA) with CM4 optical chip. Covalent immobilization of the peptide ligands on the surface of the optical chip was performed using the sulfhydryl group of the C-terminal tetragly-cylcysteine tag. Briefly, carboxyl groups on the chip surface were activated by serial injections of mixture of 0.4 M EDC/0.1 M NHS at a flow rate of 10 μL/min for 2 min and a solution of 80 mM PDEA in 100 mM borate buffer (pH 8.5) for 4 min. Solutions of 2 μM peptides in the immobilization buffer (10 mM acetate buffer, pH 4.5) were injected for 2 min at a flow rate of 10 μL/min (three repeats). Unreacted activated groups on the chip were blocked by further injection of a solution containing 50 mM cysteine, 1 M NaCl, 0.1 M sodium acetate (pH 4.3) for 4 min at a flow rate of 5 μL/min. Possible nonspecific analyte binding to the chip surface was evaluated using a free (control) channel of the biosensor exposed to the same treatments as the working channel except peptides. SPR signals were recorded in real time in resonance units (RU; 1 RU corresponds to […]) and were presented in the form of sensorgrams showing time-dependent signal changes. […] The obtained sensorgrams were analyzed with BIAevaluation v.4.1 software.

The test system of assay [2] is H6R-Aβ16. Kind of assay: NMR titration, H6R-Aβ16 dimer with HAEE and Zn2+. The format is binding, human. As to conditions: 1H NMR, H6R-Aβ16 1.6 mM, pH 6.8, 0.5 equivalent ZnCl2, titration by HAEE; V12 methyl signal at 0.2 ppm. The method, then:
Peptides Aβ16, H6R-Aβ16 and isoD7-Aβ16 at the concentration of 0.2 - 8mM were dissolved in 10-20 mM bis-Tris-d19 (2,2-Bis(hydroxymethyl)-2,2′,2"-nitrilotrie-thanol-d19 with 98% ^2D enrichment) buffer solution (pH 6.8). Sodium salt of 3-(trimethylsilyl) propionic-2,2,3,3-d4 acid (DSS) at a concentration of 10-20 μM was added as the standard. NMR spectra were measured at 278 K in 90% H2O/10% D2O with Bruker AVANCE 600 MHz spectrometer equipped with triple resonance (^1H, ^13C and ^15N) pulsed field z gradient probe. 1D NMR spectra were processed and analyzed using the Mnova software (Mestrelab Research, Spain). In order to monitor peptide-peptide interactions NMR titration experiments were carried out. […] 1D spectra were recorded for each titration point.
Figure 1. Interaction of HAEE with beta-amyloid. (A) A model for the contribution of isoD7-Aβ to AD pathology, and the possible ways of preventing its deleterious effects. Aβ spontaneously converts into isoD7-Aβ, which is accumulated over age, likely due to reduced Aβ clearance. Isomerized Aβ promotes AD pathology, potentially via formation of Zn-bound complexes serving as the seeds for a generation of neurotoxic oligomers. […] The amount of dimeric form is determined by the intensity of its characteristic signal at 0.2 ppm. […]

For assay [3], the system named is C. elegans CL2120. Kind of assay: Amyloid load by X-34 staining in C. elegans CL2120. In kind it is in vivo. As to the method:
(§1) C. elegans CL2120 (dvIs14 [(pCL12) unc-54::beta 1-42 +(pCL26) mtl-2::GFP]) and C. elegans CL2122 (dvIs15 [(pPD30.38) unc-54(vector) + (pCL26) mtl-2::GFP]) strains were obtained from the Caenorhabditis Genetics Center. The worms were handled according to standard methods without FUDR [18]. E. coli OP50 bacteria were grown overnight in Luria-Bertani broth and 50µl were spread atop NGM or NGMZn plates. NGMZn has 20μM ZnSO4. Seeded plates were incubated at 30°C for ~16 hours and then for 1-2 hours at 15 or 25°C before worms were transferred. Lifespan and paralysis experiments (see below) were performed at 25°C for enhanced expression of Aβ. This temperature is standard when studying the effects of Aβ on C. elegans CL2120 strain [19].
Nematodes were purified from unwanted microflora by the alkaline hypochlorite method, grown to the L4 stage at 15°C on NGM plates with bacterial lawn. […] Further, all contents were transferred to Petri plates with NGM or NGMZn with OP50 and placed in a temperature-controlled incubator at 25°C. Next day, worms were transferred onto similar media with a bacterial substrate and the lifespan was determined at 25°C (Supplementary Tables 3, 4).
Post-hoc analysis was performed with the Tukey test.
Figure 2.

Assay [4] concerns C. elegans CL2120. Kind of assay: Paralysis assay in C. elegans CL2120. The format is in vivo. Particulars: for Mean fraction of paralyzed: Aβ42 or isoD7-Aβ42 40 μM, HAEE 4 mM, 25°C, mean ± SD of 3 experiments. The method, then:
as §1
Then, nematodes were transferred to Petri plates with NGM or NGMZn and OP-50, placed in a temperature-controlled incubator at 25°C. On the next day, worms were transferred onto similar media with a bacterial substrate and paralyzed nematodes were counted at equal time intervals. […] For the paralysis experiments, we chose the days where we could clearly distinguish between paralysis and mortality. This conformed to the third and fourth days of their adult life. While at least three repeated trials were conducted, each experiment was performed using at least 100 worms. Details regarding repeated experiments and amounts of animals used for experiments are summarized in Supplementary Table 2. Mean fraction of paralyzed worms was compared between groups with two-way ANOVA, accounting for age and treatment. Post-hoc analysis was performed with the Tukey test. Statistical analysis was performed with GraphPad Prism 9.1 software.

The mark [5] stands for this setting: HAEE 4 mM + isoD7-Aβ42 40 µM, NGMZn, X-34.

Each structure is given as a SMILES string. Entries after “also recorded” stand apart in the source; their conditions may differ. Peptide text beside a SMILES is read from it.

T1 sequence (P05067 672-713): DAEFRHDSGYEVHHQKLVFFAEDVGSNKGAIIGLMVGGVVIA

Consider `CC(=O)N[C@@H](Cc1c[nH]cn1)C(=O)N[C@@H](C)C(=O)N[C@@H](CCC(=O)O)C(=O)N[C@@H](CCC(=O)O)C(N)=O` [HAEE, Ac-HAEE-NH2] (Ac-HAEE-NH2), for which the “Interaction with immobilized isoD7-Aβ42 in the absence of Zn2+” value in assay [1] (10 mM HEPES, pH 6.8, no Zn2+, 25°C) is given as “no interaction”. The Kd in assay [1] (immobilized isoD7-Aβ42, 100 µM ZnCl2, pH 6.8, 25°C) came to 10.4 ± 0.4 µM. In assay [2], the “Amount of dimeric form of H6R-Aβ16 upon addition of HAEE” value was “decrease in the amount of dimeric H6R-Aβ16; also recorded: disappearance of the dimeric form; also recorded: shifts the equilibrium between monomeric and dimeric Aβ towards its monomeric form”. The “Effect of HAEE on isoD7-Aβ42/Zn2+-induced amyloidosis” value in assay [3] (setting [5]) is “completely negated; also recorded: abrogates this pathological process; also recorded: fails to induce amyloidosis”. In assay [3] (setting [5]), the “Number of plaques and plaque area” value is “reduced back to the untreated group values”. The “Effect on endogenous amyloidosis in untreated transgenic C. elegans” value in assay [3] (HAEE alone) is recorded as “did not affect the endogenous amyloidosis”. Further, the “Mean fraction of paralyzed” value in assay [4] (A3 (3 days old), NGM (no Zn)) worked out at 5.5±0.35%; in assay [4] (A4 (4 days old), NGM (no Zn)), 10.5±0.55%; in assay [4] (A4 (4 days old), NGMZn (ZnSO4 20 μM)), 9.5±0.65%. The Fraction of paralyzed in assay [4] (A3 (3 days old), NGM (no Zn), replicate 1) is given as 5.5%; in assay [4] (A3 (3 days old), NGM (no Zn), replicate 2) it was 5.2%; in assay [4] (A3 (3 days old), NGM (no Zn), replicate 3) it was 5.9%; in assay [4] (A4 (4 days old), NGM (no Zn), replicate 1) it was 9.9%; in assay [4] (A4 (4 days old), NGM (no Zn), replicate 2) it was 10.9%; in assay [4] (A4 (4 days old), NGMZn, replicate 1) it was 10.2%. Also, the Fraction of paralyzed in assay [4] (A4 (4 days old), NGMZn, replicate 2) was determined as 9.5%; in assay [4] (A4 (4 days old), NGMZn, replicate 3) it was 8.9%. In addition, the “Effect of HAEE on isoD7-Aβ42/Zn2+-accelerated paralysis” value in assay [4] (HAEE 4 mM + isoD7-Aβ42 40 μM, NGMZn) is recorded as “suppresses this effect”.

A word on the Kd: it is a measure of binding affinity in units of concentration. Low readings indicate tighter binding, high ones weaker binding.
